Assays:
Conditions in all cases: 72 h
[1] = tested on: CAL-120
Protocol: (§1)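 Drug sensitivity and resistance testing (DSRT) of breast cancer cell lines in 384-well plates, 5 concentrations in 10-fold dilutions over a compound-specific 10,000-fold range. After 72 h, cytotoxicity was read by CellTox Green fluorescence and viability by CellTiter-Glo luminescence (multiplexed), normalised to DMSO and benzethonium chloride controls. EC50 is the inflection point of the fitted dose-response curve (bottom asymptote free, so it can be relative for partial curves) and is censored at the highest tested concentration. Rows with DSS 0 (no meaningful response) were excluded.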

[2] = tested on: Hs578T
Summary of the method: (§2)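 For viability, cells received 2.5 µl CellTiter-Blue for 2 h at 37 °C and fluorescence was read at 560/590 nm. Before this, breast cancer cell lines in 20 µl suspension had been incubated for 72 h on 384-well plates pre-loaded with compound dissolved in 5 µl medium. EC50 was obtained from a percent-inhibition dose-response fit censored at the highest concentration, after normalisation of each plate to vehicle and a positive kill control; rows with a zero drug sensitivity score were discarded.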

[3] = tested on: CAL-120; remark: listed apart in the source
Summary of the method: as §2

[4] = tested on: MDA-MB-231
Summary of the method: as §2

[5] = tested on: HCC1937
Summary of the method: as §2

[6] = tested on: MDA-MB-436
Summary of the method: as §2

[7] = tested on: BT-549
Summary of the method: as §2

[8] = tested on: HCC1143
Summary of the method: as §2

[9] = tested on: CAL-51
Summary of the method: as §2

[10] = tested on: CAL-51; remark: listed apart in the source
Protocol: as §1

[11] = tested on: MDA-MB-436; remark: listed apart in the source
Protocol: as §1

[12] = tested on: CAL-148
Protocol: as §1

[13] = tested on: BT-474
Summary of the method: as §2

[14] = tested on: MFM-223
Summary of the method: as §2

[15] = tested on: SK-BR-3
Summary of the method: as §2

[16] = tested on: MDA-MB-468
Summary of the method: as §2

[17] = tested on: HCC1599
Summary of the method: as §2

[18] = tested on: DU-4475
Summary of the method: as §2

[19] = tested on: HDQ-P1
Summary of the method: as §2

[20] = tested on: MDA-MB-453
Summary of the method: as §2

[21] = tested on: CAL-85-1
Summary of the method: as §2

[22] = tested on: CAL-148; remark: listed apart in the source
Summary of the method: as §2

[23] = tested on: Hs578T; remark: listed apart in the source
Protocol: as §1

[24] = tested on: MDA-MB-231; remark: listed apart in the source
Protocol: as §1

[25] = tested on: HCC1937; remark: listed apart in the source
Protocol: as §1

[26] = tested on: BT-474; remark: listed apart in the source
Protocol: as §1

[27] = tested on: MFM-223; remark: listed apart in the source
Protocol: as §1

[28] = tested on: HDQ-P1; remark: listed apart in the source
Protocol: as §1

[29] = tested on: MDA-MB-468; remark: listed apart in the source
Protocol: as §1

[30] = tested on: BT-549; remark: listed apart in the source
Protocol: as §1

[31] = tested on: CAL-85-1; remark: listed apart in the source
Protocol: as §1

[32] = tested on: MCF-10A
Protocol: as §1

[33] = tested on: HCC1599; remark: listed apart in the source
Summary of the method: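 A 20 µl suspension of breast cancer cells was placed in 384-well plates that already contained compound at 5 concentrations in 10-fold steps across a compound-specific 10,000-fold range, and the plates were left for 72 h. CellTox Green fluorescence at 485/520 nm gave cell death, and CellTiter-Glo luminescence, read after 10 min at room temperature, gave viability. Each plate was normalised to 0.1 % DMSO and a positive kill control. EC50 was fitted from the curves and censored at the top concentration.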

[34] = tested on: DU-4475; remark: listed apart in the source
Protocol: as §1

[35] = tested on: MDA-MB-453; remark: listed apart in the source
Protocol: as §1

[36] = tested on: HCC1599; remark: listed apart in the source
Protocol: as §1

[37] = tested on: HCC1143; remark: listed apart in the source
Protocol: as §1

Compound	EC50, CellTox Green [1] [nM]	EC50, CellTiter-Blue viability [2] [nM]	EC50, CellTiter-Blue viability [3] [nM]	EC50, CellTiter-Blue viability [4] [nM]	EC50, CellTiter-Blue viability [5] [nM]	EC50, CellTiter-Blue viability [6] [nM]	EC50, CellTiter-Blue viability [7] [nM]	EC50, CellTiter-Blue viability [8] [nM]	EC50, CellTiter-Blue viability [9] [nM]	EC50, CellTox Green [10] [nM]	EC50, CellTox Green [11] [nM]	EC50, CellTox Green [12] [nM]	EC50, CellTiter-Blue viability [13] [nM]	EC50, CellTiter-Blue viability [14] [nM]	EC50, CellTiter-Blue viability [15] [nM]	EC50, CellTiter-Blue viability [16] [nM]	EC50, CellTiter-Blue viability [17] [nM]	EC50, CellTiter-Blue viability [18] [nM]	EC50, CellTiter-Blue viability [19] [nM]	EC50, CellTiter-Blue viability [20] [nM]	EC50, CellTiter-Blue viability [21] [nM]	EC50, CellTiter-Blue viability [22] [nM]	EC50, CellTox Green [23] [nM]	EC50, CellTox Green [24] [nM]	EC50, CellTox Green [25] [nM]	EC50, CellTox Green [26] [nM]	EC50, CellTox Green [27] [nM]	EC50, CellTox Green [28] [nM]	EC50, CellTox Green [29] [nM]	EC50, CellTox Green [30] [nM]	EC50, CellTox Green [31] [nM]	EC50, CellTox Green [32] [nM]	EC50, CellTiter-Glo [33] [nM]	EC50, CellTox Green [34] [nM]	EC50, CellTox Green [35] [nM]	EC50, CellTox Green [36] [nM]	EC50, CellTox Green [37] [nM]
CC(C)(C)Cn1c(N)nc2ccc(-c3[nH]c(C(C)(C)C)nc3-c3ccc(F)cc3)nc21	> 10000	–	–	–	–	–	–	–	–	–	–	–	–	–	–	–	–	–	–	–	–	–	–	–	–	–	–	–	–	–	–	–	–	–	–	–	–
Cc1c(N)nc([C@H](CC(N)=O)NC[C@H](N)C(N)=O)nc1C(=O)N[C@H](C(=O)N[C@H](C)[C@@H](O)[C@H](C)C(=O)N[C@H](C(=O)NCCc1nc(-c2nc(C(=O)NCCC[S+](C)C)cs2)cs1)[C@@H](C)O)[C@@H](OC1OC(CO)C(O)C(O)C1OC1OC(CO)C(O)C(OC(N)=O)C1O)c1cnc[nH]1 (stereo partly drawn) [Bleomycin]	–	69.2	582	109	767	7330	16.4	201	9960	20.5	7500	396	–	–	–	–	–	–	–	–	–	–	–	–	–	–	–	–	–	–	–	–	–	–	–	–	–
CC(C)C[C@H](NC(=O)[C@H](CCc1ccccc1)NC(=O)CN1CCOCC1)C(=O)N[C@@H](Cc1ccccc1)C(=O)N[C@@H](CC(C)C)C(=O)[C@@]1(C)CO1 [Carfilzomib]	34.6	5.47	9.07	6.44	2.21	14.3	2.78	8.47	20.2	5.31	6.94	16.1	26.9	1.94	5.45	5.66	88.6	12.2	10.9	2.22	13.6	25.8	31.9	10.2	6.49	60.2	8.42	25.1	0.78	11.4	9	136	96.1	–	–	–	–
CCN(CC)CCOc1ccc(C(=C(Cl)c2ccccc2)c2ccccc2)cc1 [Clomifene]	–	–	4600	2830	9530	6850	3250	–	–	–	–	–	5530	6930	–	3630	–	7320	9480	4990	9270	–	2260	1990	1760	3470	522	–	–	–	6280	1010	2830	5820	5670	9780	–
N[C@@H](Cc1ccc(N(CCCl)CCCl)cc1)C(=O)O [Melphalan]	1790	222	–	–	85.5	–	–	–	–	194	2300	354	–	–	–	–	–	–	–	–	–	–	1110	129	613	347	514	363	293	778	392	275	467	1290	419	726	2910
O=C(c1cc(Cc2n[nH]c(=O)c3ccccc23)ccc1F)N1CCN(C(=O)C2CC2)CC1 [Olaparib]	–	–	–	–	116	–	–	–	6590	8300	498	–	–	–	–	1610	–	418	–	–	–	–	–	–	–	–	–	–	–	–	–	–	–	–	–	–	–
C[C@]12C=CC(=O)C=C1CC[C@@H]1[C@@H]2C(=O)C[C@@]2(C)[C@H]1CC[C@]2(O)C(=O)CO [Prednisone]	1000	–	–	–	–	–	–	–	–	–	–	–	–	–	–	–	–	–	–	–	–	–	–	–	–	–	–	–	–	–	–	–	–	–	–	–	–
CC[C@@H]1C(=O)N(C)c2cnc(Nc3ccc(C(=O)N[C@H]4CC[C@H](N5CCN(CC6CC6)CC5)CC4)cc3OC)nc2N1C(C)C [Volasertib]	–	36.8	5.21	20.4	11.1	–	23.5	13.8	24.8	20.7	–	–	> 1000	1.6	8.58	13.7	–	24.7	379	6.23	10.4	11.6	120	3.18	0.49	–	0.83	17.9	–	68.5	3.2	2.53	64.5	–	–	–	49.1

Reference: the supplement of paper PMC4862054
